Experimental data from BindingDB's records for doi:10.1016/j.ejmech.2020.113121 (Virginia Tech, 2021).

Experiment: Inhibition of recombinant human Sphk2 expressed in yeast strain KYA1 assessed as increase in yeast growth measured after 24 hrs

EC50: 170 nM
Structure (SMILES): CCCCCCCCCn1ccc2cc(-c3noc([C@@H]4CCCN4C(=N)N)n3)ccc21
